Results on seven compounds are retold here after PubChem BioAssay AID1745844 (Carcinogenic Potency Database (CPDB), 2022).

This data set concerns rodent lifetime carcinogenesis bioassay, tumor incidence TD50. Kind of data set: carcinogenic potency in animals, long-term in vivo studies, CPDB compilation (AID 1745844).

Values joined by “and” are separate entries in the source; they are usually repeats but may differ in a detail not shown here. Equal entries are not always repeated. Active and inactive are the calls of the source. The rule behind the calls is not given here.

`NC(=O)NN=Cc1ccc([N+](=O)[O-])o1`: the TD50 by setting is: (mouse, strain B6C3F1, females, in feed, site: any site (literature study), lesion: several types, types named in the paper, dosed 103 weeks, study length 104 weeks) 66.2 mg/kg/day; (mouse, strain B6C3F1, females, in feed, site: lung, lesion: alveolar/bronchiolar adenoma + alveolar/bronchiolar carcinoma, dosed 103 weeks, study length 104 weeks) 241 mg/kg/day; (mouse, strain B6C3F1, females, in feed, site: ovary, lesion: granulosa-cell tumor + mixed tumor, benign, dosed 103 weeks, study length 104 weeks) 22.4 mg/kg/day; (mouse, strain B6C3F1, females, in feed, site: ovary, lesion: granulosa-cell tumor, dosed 103 weeks, study length 104 weeks) 124 mg/kg/day; (mouse, strain B6C3F1, females, in feed, site: ovary, lesion: mixed tumor, benign + tubular adenoma, dosed 103 weeks, study length 104 weeks) 29.8 mg/kg/day; (mouse, strain B6C3F1, females, in feed, site: ovary, lesion: mixed tumor, benign, dosed 103 weeks, study length 104 weeks) 30.8 mg/kg/day. The TD50 reads like this: (mouse, strain B6C3F1, males, in feed, site: any site (literature study), lesion: several types, types named in the paper, dosed 103 weeks, study length 104 weeks) 89.3 mg/kg/day; (mouse, strain B6C3F1, males, in feed, site: liver, lesion: hepatocellular adenoma + hepatocellular carcinoma + neoplastic nodule, dosed 103 weeks, study length 104 weeks) 152 mg/kg/day; (mouse, strain B6C3F1, males, in feed, site: lung, lesion: alveolar/bronchiolar adenoma + alveolar/bronchiolar carcinoma, dosed 103 weeks, study length 104 weeks) 1380 mg/kg/day; (mouse, strain B6C3F1, males, in feed, site: subcutaneous tissue, lesion: fibrosarcoma + fibroma + neurofibrosarcoma + sarcoma, NOS, dosed 103 weeks, study length 104 weeks) 154 mg/kg/day (inactive); (rat, strain Fischer 344, females, in feed, site: liver, lesion: hepatocellular adenoma + hepatocellular carcinoma + neoplastic nodule, dosed 103 weeks, study length 104 weeks) 253 mg/kg/day; (rat, strain Fischer 344, females, in feed, site: mammary gland, lesion: fibroadenoma, dosed 103 weeks, study length 104 weeks) 15.7 mg/kg/day. Besides, the TD50 (rat, strain Fischer 344, males, in feed, site: any site (literature study), lesion: several types, types named in the paper, dosed 103 weeks, study length 104 weeks) stood at 33.8 mg/kg/day; the TD50 (rat, strain Fischer 344, males, in feed, site: preputial gland, lesion: carcinoma, NOS, dosed 103 weeks, study length 104 weeks) is 65.5 mg/kg/day; the TD50 (rat, strain Fischer 344, males, in feed, site: skin, lesion: sebaceous adenoma + trichoepithelioma, dosed 103 weeks, study length 104 weeks) worked out at 151 mg/kg/day; the TD50 (rat, strain Fischer 344, males, in feed, site: skin, lesion: sebaceous adenoma, dosed 103 weeks, study length 104 weeks) came to 177 mg/kg/day; the TD50 (rat, strain Fischer 344, males, in feed, site: tunica vaginalis, lesion: mesothelioma, NOS + mesothelioma, malignant, dosed 103 weeks, study length 104 weeks) was 44 mg/kg/day; the TD50 (rat, strain Holtzman albino (Sprague-Dawley derived), females, in feed, site: mammary gland, lesion: fibroadenoma, dosed 36 weeks, study length 54 weeks) is 6.52 mg/kg/day. For the setting “rat, strain Sprague-Dawley, females, in feed, site: mammary tissue, wider than the gland, lesion: one or several types, types not named, dosed 46 weeks, study length 66 weeks”, the TD50 is 7.12 mg/kg/day. Under “rat, strain Holtzman albino (Sprague-Dawley derived), females, in feed, site: mammary tissue, wider than the gland, lesion: one or several types, types not named, dosed 44 weeks, study length 60 weeks”, the carcinogen call was “positive”.

For `CC(C)N=[N+]([O-])C(C)C`, the TD50 reads like this: (rat, strain Sprague-Dawley, males, by gavage, site: liver, lesion: hepatocellular carcinoma, dosed 26 weeks, study length 77 weeks) 0.00736 mg/kg/day; (rat, strain Sprague-Dawley, males, by gavage, site: skin, lesion: keratoacanthoma, dosed 26 weeks, study length 77 weeks) 0.00268 mg/kg/day.

Under “rat, strain Fischer 344, males, in feed, site: kidney, lesion: tubular-cell adenoma, dosed 71 weeks, study length 71 weeks”, `CCC(CC)C(=O)NC(N)=O` yielded a TD50 of 30.4 mg/kg/day.

In the case of `O=NN1C[C@H](O)C[C@H]1C(=O)O`, the TD50 (rat, strain MRC, females, in drinking water, site: any site (literature study), lesion: several types, types named in the paper, dosed 75 weeks, study length 104 weeks) is 3.84 mg/kg/day (inactive). Where the note is “rat, strain MRC, males, in drinking water, site: any site (literature study), lesion: several types, types named in the paper, dosed 75 weeks, study length 104 weeks”, the carcinogen call was “negative (inactive)”.

For the compound `NNC(=O)c1ccncc1`, the TD50 runs as follows: (hamster, strain Syrian Golden, females, in drinking water, site: forestomach, lesion: papilloma, dosed 121 weeks, study length 121 weeks) 575 mg/kg/day (inactive); (mouse, strain A, males, by gavage, site: liver, lesion: carcinoma, dosed 79 weeks, study length 79 weeks) 159 mg/kg/day; (mouse, strain A, males, by gavage, site: lung, lesion: carcinoma, dosed 79 weeks, study length 79 weeks) 206 mg/kg/day; (mouse, strain A, males, by gavage, site: several sites, sites named in the paper, lesion: carcinoma, dosed 79 weeks, study length 79 weeks) 219 mg/kg/day; (mouse, strain AKR, females, in drinking water, site: lung, lesion: one or several types, types not named, dosed 70 weeks, study length 70 weeks) 89.6 mg/kg/day (inactive); (mouse, strain AKR, males, in drinking water, site: lung, lesion: one or several types, types not named, dosed 59 weeks, study length 59 weeks) 202 mg/kg/day (inactive). Further, the TD50 reads like this: (mouse, strain C3H (MTV+), females, in drinking water, site: lung, lesion: adenoma, dosed 72 weeks, study length 72 weeks) 755 mg/kg/day; (mouse, strain C3H (MTV+), males, in drinking water, site: lung, lesion: adenoma, dosed 72 weeks, study length 72 weeks) 219 mg/kg/day; (mouse, strain CBA/Cb/Se, females, by gavage, site: liver, lesion: hepatoma, dosed 36 weeks, study length 84 weeks) 187 mg/kg/day (inactive); (mouse, strain CBA/Cb/Se, females, by gavage, site: lung, lesion: several types, types named in the paper, dosed 36 weeks, study length 84 weeks) 11.2 mg/kg/day; (mouse, strain CBA/Cb/Se, males, by gavage, site: liver, lesion: hepatoma, dosed 36 weeks, study length 74 weeks) 165 mg/kg/day (inactive); (mouse, strain CBA/Cb/Se, males, by gavage, site: lung, lesion: several types, types named in the paper, dosed 36 weeks, study length 74 weeks) 12.2 mg/kg/day. For the same compound, the TD50 was 14.1 mg/kg/day (mouse, strain Not specified, both sexes, by gavage, site: any site (literature study), lesion: several types, types named in the paper, dosed 52 weeks, study length 52 weeks); 19.3 mg/kg/day (mouse, strain Not specified, both sexes, by gavage, site: lung, lesion: adenoma, dosed 52 weeks, study length 52 weeks); 80.9 mg/kg/day (mouse, strain Not specified, both sexes, by gavage, site: mammary gland, lesion: adenocarcinoma, dosed 52 weeks, study length 52 weeks); 435 mg/kg/day (mouse, strain Swiss albino, females, in drinking water, site: lung, lesion: adenocarcinoma, dosed 80 weeks, study length 80 weeks); 189 mg/kg/day (mouse, strain Swiss albino, females, in drinking water, site: lung, lesion: adenoma, dosed 80 weeks, study length 80 weeks); 386 mg/kg/day (mouse, strain Swiss albino, females, in drinking water, site: lung, lesion: adenoma, dosed 101 weeks, study length 106 weeks). Besides, the TD50 runs as follows: (mouse, strain Swiss albino, females, in drinking water, site: lung, lesion: several types, types named in the paper, dosed 80 weeks, study length 80 weeks) 153 mg/kg/day; (mouse, strain Swiss albino, males, in drinking water, site: lung, lesion: adenoma, dosed 80 weeks, study length 80 weeks) 124 mg/kg/day; (mouse, strain Swiss albino, males, in drinking water, site: lung, lesion: adenoma, dosed 86 weeks, study length 87 weeks) 104 mg/kg/day; (mouse, strain Swiss, both sexes, by gavage, site: lung, lesion: adenocarcinoma, dosed 95 weeks, study length 95 weeks) 28.8 mg/kg/day; (mouse, strain Swiss, both sexes, by gavage, site: lung, lesion: one or several types, types not named, dosed 97 weeks, study length 97 weeks) 24.5 mg/kg/day; (mouse, strain Swiss, females, by gavage, site: liver, lesion: carcinoma, dosed 81 weeks, study length 83 weeks) 88.6 mg/kg/day. In addition, the TD50 reads like this: (mouse, strain Swiss, females, by gavage, site: lung, lesion: carcinoma, dosed 81 weeks, study length 83 weeks) 88.6 mg/kg/day; (mouse, strain Swiss, females, by gavage, site: lung, lesion: carcinoma, dosed 83 weeks, study length 83 weeks) 53.1 mg/kg/day; (mouse, strain Swiss, females, by gavage, site: several sites, sites named in the paper, lesion: carcinoma, dosed 81 weeks, study length 83 weeks) 39.9 mg/kg/day; (mouse, strain Swiss, females, by gavage, site: several sites, sites named in the paper, lesion: carcinoma, dosed 83 weeks, study length 83 weeks) 53.1 mg/kg/day; (mouse, strain Swiss, males, by gavage, site: liver, lesion: carcinoma, dosed 79 weeks, study length 79 weeks) 88.8 mg/kg/day and 71.3 mg/kg/day; (mouse, strain Swiss, males, by gavage, site: liver, lesion: carcinoma, dosed 85 weeks, study length 85 weeks) 211 mg/kg/day. In addition, the TD50 (mouse, strain Swiss, males, by gavage, site: lung, lesion: carcinoma, dosed 79 weeks, study length 79 weeks) was 41.1 mg/kg/day and 39.2 mg/kg/day; the TD50 (mouse, strain Swiss, males, by gavage, site: lung, lesion: carcinoma, dosed 85 weeks, study length 85 weeks) is 28.9 mg/kg/day; the TD50 (mouse, strain Swiss, males, by gavage, site: several sites, sites named in the paper, lesion: carcinoma, dosed 79 weeks, study length 79 weeks) is 25.7 mg/kg/day and 21.2 mg/kg/day; the TD50 (mouse, strain Swiss, males, by gavage, site: several sites, sites named in the paper, lesion: carcinoma, dosed 85 weeks, study length 85 weeks) was 24 mg/kg/day; the TD50 (rat, strain Cb/Sc, females, in drinking water, site: mammary gland, lesion: fibroadenoma, dosed 48 weeks, study length 64 weeks) was 120 mg/kg/day; the TD50 (rat, strain Cb/Sc, males, in drinking water, site: liver, lesion: one or several types, types not named, dosed 48 weeks, study length 84 weeks) is 199 mg/kg/day. Further, the TD50 (rat, strain Cb/Sc, males, in drinking water, site: lung, lesion: several types, types named in the paper, dosed 48 weeks, study length 84 weeks) was 1070 mg/kg/day. In addition, the carcinogen call (hamster, strain Syrian Golden, males, in drinking water, site: liver, lesion: hemangioma, dosed 130 weeks, study length 130 weeks) was “negative (inactive)”; the carcinogen call (mouse, strain AKR, males, in drinking water, site: liver, lesion: hemangioma, dosed 59 weeks, study length 59 weeks) was “negative (inactive)”; the carcinogen call (mouse, strain Swiss albino, females, in drinking water, site: liver, lesion: hemangioma, dosed 80 weeks, study length 80 weeks) was “negative (inactive)”; the carcinogen call (mouse, strain Swiss albino, females, in drinking water, site: liver, lesion: hemangioma, dosed 101 weeks, study length 106 weeks) was “negative (inactive)”; the carcinogen call (mouse, strain Swiss albino, males, in drinking water, site: liver, lesion: hemangioma, dosed 80 weeks, study length 80 weeks) was “negative (inactive)”.

With `C#C[C@]1(O)CC[C@H]2[C@@H]3CCc4cc(OC)ccc4[C@H]3CC[C@@]21C`, the TD50 runs as follows: (mouse, strain CFLP, females, in feed, site: liver, lesion: hepatocellular tumor, dosed 78 weeks, study length 78 weeks) 6.27 mg/kg/day (inactive); (mouse, strain CFLP, males, in feed, site: liver, lesion: hepatocellular tumor, dosed 78 weeks, study length 78 weeks) 1.81 mg/kg/day (inactive).

On to `CCOC(=O)/C(Cl)=N/Nc1ccccc1`, for which the TD50 was 20200 mg/kg/day (inactive) (mouse, strain B6C3F1, females, in feed, site: pituitary gland, lesion: adenoma, NOS, dosed 103 weeks, study length 104 weeks); 86500 mg/kg/day (mouse, strain B6C3F1, females, in feed, site: uterus, lesion: endometrial stromal polyp, dosed 103 weeks, study length 104 weeks); 7160 mg/kg/day (inactive) (mouse, strain B6C3F1, males, in feed, site: lung, lesion: alveolar/bronchiolar adenoma, dosed 103 weeks, study length 104 weeks); 11900 mg/kg/day (inactive) (rat, strain Fischer 344, females, in feed, site: adrenal gland, lesion: cortical adenoma, dosed 103 weeks, study length 105 weeks); 29500 mg/kg/day (rat, strain Fischer 344, females, in feed, site: any site (literature study), lesion: several types, types named in the paper, dosed 103 weeks, study length 105 weeks); 516000 mg/kg/day (rat, strain Fischer 344, males, in feed, site: liver, lesion: hepatocellular adenoma + hepatocellular carcinoma + neoplastic nodule, dosed 103 weeks, study length 105 weeks). The carcinogen call (rat, strain Fischer 344, males, in feed, site: any site (literature study), lesion: several types, types named in the paper, dosed 103 weeks, study length 105 weeks) was “negative (inactive)”.

Broadly, the TD50 is the 50% point of the dose-response relation for the toxic effect studied.
